Test results published in the NIST ThermoML archive (doi:10.1016/j.fluid.2014.10.002).
“And” between values parts separate entries of the source, which are not always exact repeats. Equal values may be shown once.

Settings: Liquid

CCCCC(CC)COC(=O)c1ccc(C(=O)OCC(CC)CCCC)c(C(=O)OCC(CC)CCCC)c1 (stereo unspecified) [tris(2-ethylhexyl) trimellitate]
Settings | viscosity
303.15 K, 980 kPa, Vibrating wire viscometry | 158.5 mPa·s
303.15 K, 1030 kPa, Vibrating wire viscometry | 158.4 mPa·s
303.15 K, 1080 kPa, Vibrating wire viscometry | 158.9 mPa·s
303.15 K, 15060 kPa, Vibrating wire viscometry | 220.6 mPa·s and 220.2 mPa·s
303.15 K, 29810 kPa, Vibrating wire viscometry | 302.4 mPa·s and 302.1 mPa·s
303.15 K, 29820 kPa, Vibrating wire viscometry | 303.1 mPa·s
303.16 K, 2820 kPa, Vibrating wire viscometry | 165 mPa·s
303.16 K, 2850 kPa, Vibrating wire viscometry | 165.1 mPa·s and 165.7 mPa·s
303.16 K, 5120 kPa, Vibrating wire viscometry | 174.3 mPa·s
303.16 K, 5130 kPa, Vibrating wire viscometry | 173.4 mPa·s and 173.8 mPa·s and 173.6 mPa·s
303.16 K, 7680 kPa, Vibrating wire viscometry | 183.8 mPa·s [middle of 4 runs]
303.16 K, 7690 kPa, Vibrating wire viscometry | 183.8 mPa·s
303.16 K, 9830 kPa, Vibrating wire viscometry | 193.9 mPa·s
303.16 K, 9850 kPa, Vibrating wire viscometry | 193.9 mPa·s
303.16 K, 9880 kPa, Vibrating wire viscometry | 194.1 mPa·s
303.16 K, 19950 kPa, Vibrating wire viscometry | 242.6 mPa·s
303.16 K, 19980 kPa, Vibrating wire viscometry | 242.8 mPa·s
303.16 K, 19990 kPa, Vibrating wire viscometry | 242.8 mPa·s
303.16 K, 20010 kPa, Vibrating wire viscometry | 243.8 mPa·s
303.16 K, 29820 kPa, Vibrating wire viscometry | 303.5 mPa·s and 303.8 mPa·s
303.16 K, 29830 kPa, Vibrating wire viscometry | 302.3 mPa·s
303.16 K, 40160 kPa, Vibrating wire viscometry | 369.8 mPa·s
303.16 K, 40170 kPa, Vibrating wire viscometry | 370.5 mPa·s and 373.1 mPa·s and 370.9 mPa·s
303.16 K, 40180 kPa, Vibrating wire viscometry | 373.2 mPa·s and 369.5 mPa·s
303.17 K, 101.33 kPa, Capillary tube (Ostwald / Ubbelohde) method | 153.9 mPa·s
303.17 K, 50390 kPa, Vibrating wire viscometry | 462.2 mPa·s
303.17 K, 50400 kPa, Vibrating wire viscometry | 462.1 mPa·s [middle of 4 runs]
313.16 K, 1220 kPa, Vibrating wire viscometry | 87.78 mPa·s
313.16 K, 1230 kPa, Vibrating wire viscometry | 87.98 mPa·s
313.16 K, 1310 kPa, Vibrating wire viscometry | 88.02 mPa·s
313.16 K, 1320 kPa, Vibrating wire viscometry | 87.62 mPa·s and 87.55 mPa·s
313.16 K, 2780 kPa, Vibrating wire viscometry | 90.52 mPa·s
313.16 K, 5160 kPa, Vibrating wire viscometry | 96.14 mPa·s
313.16 K, 5170 kPa, Vibrating wire viscometry | 96.24 mPa·s
313.16 K, 5190 kPa, Vibrating wire viscometry | 96.26 mPa·s
313.16 K, 5210 kPa, Vibrating wire viscometry | 95.79 mPa·s
313.16 K, 7710 kPa, Vibrating wire viscometry | 101.6 mPa·s
313.16 K, 7780 kPa, Vibrating wire viscometry | 101.7 mPa·s and 101.9 mPa·s and 101.4 mPa·s
313.16 K, 7790 kPa, Vibrating wire viscometry | 101.3 mPa·s
313.16 K, 14800 kPa, Vibrating wire viscometry | 117.6 mPa·s
313.16 K, 14820 kPa, Vibrating wire viscometry | 117.4 mPa·s
313.16 K, 20040 kPa, Vibrating wire viscometry | 132.4 mPa·s
313.16 K, 20050 kPa, Vibrating wire viscometry | 131.6 mPa·s
313.16 K, 20060 kPa, Vibrating wire viscometry | 131.6 mPa·s
313.16 K, 29930 kPa, Vibrating wire viscometry | 159.8 mPa·s
313.16 K, 29970 kPa, Vibrating wire viscometry | 160.2 mPa·s
313.16 K, 29980 kPa, Vibrating wire viscometry | 159.8 mPa·s
313.16 K, 39960 kPa, Vibrating wire viscometry | 197.4 mPa·s
313.16 K, 39980 kPa, Vibrating wire viscometry | 197 mPa·s
313.16 K, 40000 kPa, Vibrating wire viscometry | 196.9 mPa·s
313.16 K, 40020 kPa, Vibrating wire viscometry | 196.6 mPa·s
313.16 K, 50020 kPa, Vibrating wire viscometry | 239.1 mPa·s
313.16 K, 50040 kPa, Vibrating wire viscometry | 240.3 mPa·s and 239.4 mPa·s
313.16 K, 50070 kPa, Vibrating wire viscometry | 239.5 mPa·s
313.16 K, 50080 kPa, Vibrating wire viscometry | 239.6 mPa·s
313.16 K, 50090 kPa, Vibrating wire viscometry | 239.3 mPa·s
313.16 K, 65420 kPa, Vibrating wire viscometry | 317.8 mPa·s
313.16 K, 65430 kPa, Vibrating wire viscometry | 319 mPa·s
313.16 K, 65440 kPa, Vibrating wire viscometry | 319.8 mPa·s
313.16 K, 65470 kPa, Vibrating wire viscometry | 317.5 mPa·s
313.17 K, 2780 kPa, Vibrating wire viscometry | 90.59 mPa·s and 90.6 mPa·s
313.17 K, 2790 kPa, Vibrating wire viscometry | 90.29 mPa·s and 90.54 mPa·s
313.17 K, 2800 kPa, Vibrating wire viscometry | 90.3 mPa·s
313.17 K, 5170 kPa, Vibrating wire viscometry | 95.9 mPa·s
313.17 K, 14770 kPa, Vibrating wire viscometry | 117 mPa·s
313.17 K, 20060 kPa, Vibrating wire viscometry | 132 mPa·s
313.17 K, 29940 kPa, Vibrating wire viscometry | 159.5 mPa·s
313.18 K, 101.33 kPa, Capillary tube (Ostwald / Ubbelohde) method | 86.37 mPa·s
323.1 K, 101.33 kPa, Capillary tube (Ostwald / Ubbelohde) method | 52.41 mPa·s
328.06 K, 101.33 kPa, Capillary tube (Ostwald / Ubbelohde) method | 41.71 mPa·s
328.15 K, 2490 kPa, Vibrating wire viscometry | 43.18 mPa·s
328.15 K, 2520 kPa, Vibrating wire viscometry | 43.29 mPa·s
328.15 K, 5120 kPa, Vibrating wire viscometry | 45.81 mPa·s
328.15 K, 7540 kPa, Vibrating wire viscometry | 47.59 mPa·s
328.15 K, 7550 kPa, Vibrating wire viscometry | 47.68 mPa·s
328.15 K, 7560 kPa, Vibrating wire viscometry | 47.66 mPa·s
328.15 K, 10410 kPa, Vibrating wire viscometry | 50.91 mPa·s
328.15 K, 10430 kPa, Vibrating wire viscometry | 50.81 mPa·s
328.15 K, 15140 kPa, Vibrating wire viscometry | 55.66 mPa·s
328.15 K, 20020 kPa, Vibrating wire viscometry | 60.75 mPa·s
328.15 K, 20040 kPa, Vibrating wire viscometry | 60.75 mPa·s and 60.87 mPa·s
328.15 K, 30400 kPa, Vibrating wire viscometry | 74.44 mPa·s
328.15 K, 30410 kPa, Vibrating wire viscometry | 74.65 mPa·s
328.15 K, 30420 kPa, Vibrating wire viscometry | 74.52 mPa·s
328.15 K, 40610 kPa, Vibrating wire viscometry | 89.47 mPa·s
328.15 K, 50030 kPa, Vibrating wire viscometry | 105.8 mPa·s and 105.5 mPa·s and 105.9 mPa·s
328.15 K, 50040 kPa, Vibrating wire viscometry | 105.5 mPa·s and 105.7 mPa·s
328.15 K, 50050 kPa, Vibrating wire viscometry | 105.7 mPa·s
328.15 K, 50070 kPa, Vibrating wire viscometry | 105.9 mPa·s
328.15 K, 50080 kPa, Vibrating wire viscometry | 105.8 mPa·s
328.15 K, 65530 kPa, Vibrating wire viscometry | 139.6 mPa·s
328.16 K, 1000 kPa, Vibrating wire viscometry | 41.66 mPa·s
328.16 K, 1030 kPa, Vibrating wire viscometry | 41.61 mPa·s and 41.82 mPa·s
328.16 K, 1050 kPa, Vibrating wire viscometry | 41.76 mPa·s
328.16 K, 2510 kPa, Vibrating wire viscometry | 43.2 mPa·s
328.16 K, 2520 kPa, Vibrating wire viscometry | 43.23 mPa·s
328.16 K, 2530 kPa, Vibrating wire viscometry | 43.31 mPa·s
328.16 K, 5100 kPa, Vibrating wire viscometry | 45.73 mPa·s and 45.69 mPa·s
328.16 K, 5130 kPa, Vibrating wire viscometry | 45.73 mPa·s and 45.72 mPa·s
328.16 K, 5140 kPa, Vibrating wire viscometry | 45.67 mPa·s
328.16 K, 7580 kPa, Vibrating wire viscometry | 47.76 mPa·s
328.16 K, 10390 kPa, Vibrating wire viscometry | 50.78 mPa·s
328.16 K, 10400 kPa, Vibrating wire viscometry | 50.84 mPa·s and 50.82 mPa·s
328.16 K, 10410 kPa, Vibrating wire viscometry | 50.74 mPa·s
328.16 K, 15100 kPa, Vibrating wire viscometry | 55.71 mPa·s
328.16 K, 15110 kPa, Vibrating wire viscometry | 55.52 mPa·s
328.16 K, 15130 kPa, Vibrating wire viscometry | 55.62 mPa·s
328.16 K, 20020 kPa, Vibrating wire viscometry | 60.83 mPa·s
328.16 K, 20030 kPa, Vibrating wire viscometry | 60.93 mPa·s
328.16 K, 30420 kPa, Vibrating wire viscometry | 74.4 mPa·s
328.16 K, 40570 kPa, Vibrating wire viscometry | 89.15 mPa·s
328.16 K, 40590 kPa, Vibrating wire viscometry | 89.1 mPa·s
328.16 K, 40620 kPa, Vibrating wire viscometry | 89.25 mPa·s
328.16 K, 50040 kPa, Vibrating wire viscometry | 105.5 mPa·s
328.16 K, 65490 kPa, Vibrating wire viscometry | 139.6 mPa·s
343.14 K, 1080 kPa, Vibrating wire viscometry | 22.75 mPa·s
343.14 K, 10140 kPa, Vibrating wire viscometry | 27.1 mPa·s
343.14 K, 10150 kPa, Vibrating wire viscometry | 27.11 mPa·s and 27.07 mPa·s
343.14 K, 19890 kPa, Vibrating wire viscometry | 32.41 mPa·s
343.14 K, 19900 kPa, Vibrating wire viscometry | 32.35 mPa·s and 32.43 mPa·s
343.14 K, 19910 kPa, Vibrating wire viscometry | 32.45 mPa·s
343.14 K, 19920 kPa, Vibrating wire viscometry | 32.38 mPa·s
343.14 K, 19930 kPa, Vibrating wire viscometry | 32.41 mPa·s
343.14 K, 30240 kPa, Vibrating wire viscometry | 38.59 mPa·s
343.14 K, 30250 kPa, Vibrating wire viscometry | 38.67 mPa·s and 38.63 mPa·s and 38.6 mPa·s
343.14 K, 30260 kPa, Vibrating wire viscometry | 38.59 mPa·s
343.14 K, 40260 kPa, Vibrating wire viscometry | 45.94 mPa·s
343.14 K, 40270 kPa, Vibrating wire viscometry | 45.89 mPa·s and 45.83 mPa·s
343.14 K, 40280 kPa, Vibrating wire viscometry | 45.91 mPa·s
343.14 K, 49840 kPa, Vibrating wire viscometry | 53.72 mPa·s and 53.82 mPa·s
343.14 K, 49860 kPa, Vibrating wire viscometry | 53.79 mPa·s
